# Test: log p (physical constant of Table 7)
# Conditions: single isomer (E or Z as listed in Table 7)
row,SMILES,log p
1,CCON=C(C(=O)NCCc1ccc(OC)c(OC)c1)c1ccc2c(c1)CCC2 [Compound 170],log p: 3.25
2,CO/N=C(/C(=O)NCCc1ccc(OC)c(OC)c1)c1ccc(C2CCCCC2)cc1 [Compound 171],log p: 4.03
3,CCON=C(C(=O)NCCc1ccc(OC)c(OC)c1)c1ccc2c(c1)CCCC2 [Compound 173],log p: 3.53

# Test: log p (physical constant, Table 7)
# Conditions: E/Z isomer mixture; first of two printed values (x/y)
row,SMILES,log p
1,CON=C(C(=O)NCCc1ccc(OC)c(OC)c1)c1ccc(C)cc1 (mixture of isomers) [Compound 41],2.53
2,CCON=C(C(=O)NCCc1ccc(OC)c(OC)c1)c1ccc(Cl)cc1 (mixture of isomers) [Compound 77],3.07

# Same assay, conditions: E/Z isomer mixture; second of two printed values (x/y)
row,SMILES,log p
1,CON=C(C(=O)NCCc1ccc(OC)c(OC)c1)c1ccc(C)cc1 (mixture of isomers) [Compound 41],2.77
2,CCON=C(C(=O)NCCc1ccc(OC)c(OC)c1)c1ccc(Cl)cc1 (mixture of isomers) [Compound 77],3.34

# Same assay, conditions: physical constant of Table 7
row,SMILES,log p
1,CO/N=C(/C(=O)NCCc1ccc(OC)c(OC)c1)c1ccc(Cl)cc1 [Compound 24],log p: 2.99
2,CON=C(C(=O)NCCc1ccc(OC)c(OC)c1)c1ccc(C)s1 [Compound 73],log p: 2.46
3,CCc1ccc(/C(=N\OC)C(=O)NCCc2ccc(OC)c(OC)c2)cc1 [Compound 81],log p: 2.86
4,CCOc1ccc(/C(=N\OC)C(=O)NCCc2ccc(OC)c(OC)c2)cc1 [Compound 82],log p: 2.59
5,CO/N=C(\C(=O)NCCc1ccc(OC)c(OC)c1)c1ccc(C)c(C)c1 [Compound 91],log p: 3.00
6,CO/N=C(/C(=O)NCCc1ccc(OC)c(OC)c1)c1ccc(Br)cc1 [Compound 96],log p: 2.82
7,CO/N=C(/C(=O)NCCc1ccc(OC)c(OC)c1)c1ccc(F)cc1 [Compound 98],log p: 2.39
8,CO/N=C(/C(=O)NCCc1ccc(OC)c(OC)c1)c1ccc(C)c(C)c1 [Compound 99],log p: 2.75
9,CCO/N=C(/C(=O)NCCc1ccc(OC)c(OC)c1)c1ccc(C)cc1 [Compound 110],log p: 2.85
10,CON=C(C(=O)NCCc1ccc(OC)c(OC)c1)c1ccc2c(c1)CCC2 [Compound 114],log p: 3.01
11,CON=C(C(=O)NCCc1ccc(OC)c(OC)c1)c1ccc2c(c1)CCCC2 [Compound 117],log p: 3.44
12,CCCc1ccc(C(=NOC)C(=O)NCCc2ccc(OC)c(OC)c2)cc1 [Compound 124],log p: 3.25
13,CON=C(C(=O)NCCc1ccc(OC)c(OC)c1)c1ccc(OCc2ccccc2)cc1 [Compound 126],log p: 3.49
14,CCc1ccc(C(=NOC)C(=O)NCCc2ccc(OC)c(OC)c2)s1 [Compound 127],log p: 3.22
15,CCCCc1ccc(C(=NOC)C(=O)NCCc2ccc(OC)c(OC)c2)cc1 [Compound 132],log p: 3.62
16,CCc1ccc(C(=NOC)C(=O)NCCc2ccc(OC)c(OC)c2)s1 [Compound 143],log p: 2.77
17,CCON=C(C(=O)NCCc1ccc(OC)c(OC)c1)c1ccc(Br)cc1 [Compound 146],log p: 3.15

# — patent US6730705B1, “Alkoximino acetic acid amides” (Bayer Aktiengesellschaft, priority 1995, dated 2004)
